Here are results for nine compounds from ChEMBL document CHEMBL1201862, “PubChem BioAssay data set” (2004).

Some test systems named below: 786-0; A498; ACHN; BT-549; CAKI-1; CCRF-CEM; EKVX; HCT-15; HL-60; HOP-62; MCF7; MDA-MB-435; MOLT-4; OVCAR-5; PC-3; SF-268; SF-539; SK-MEL-2; SNB-75; U-251.
Common to all, as to test: NCI-60 cell line screen, 48 h

Each structure is given as a SMILES string.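 How tested: cells in 96-well plates exposed to compound for 48 hours at five concentrations. GI50: concentration for 50% inhibition of growth.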 Active and inactive are the calls of the source. No stated cut-off is given here; in the data, active = GI50 up to about 1.1 µM and inactive = higher. Where only a bound is given, the exact number is not on record here.

Turning to `C=CC(=O)N1C/C(=C\c2ccc(OC)cc2)C(=O)/C(=C/c2ccc(OC)cc2)C1`, the GI50 with 786-0 is 1740 nM (inactive); with A498, 1730 nM (inactive); in the experiment with ACHN, 1780 nM (inactive); with BT-549, 1710 nM (inactive); with CAKI-1 it was 3220 nM (inactive); in the experiment with CCRF-CEM, 1780 nM (inactive). For the same compound, the GI50 is 3350 nM (inactive) in the experiment on EKVX; 1560 nM in the experiment with HCT-15; 690 nM (active) with HL-60; 2550 nM (inactive) with HOP-62; 628 nM (active) in the experiment on MCF7; 2060 nM (inactive) with MDA-MB-435. For the same compound, the GI50 in the experiment on MOLT-4 is 1760 nM (inactive); in the experiment on OVCAR-5 it was 4900 nM (inactive); in the experiment with PC-3 it was 1830 nM (inactive); in the experiment with SF-268, 3510 nM (inactive); in the experiment with SF-539, 1710 nM (inactive); in the experiment on SK-MEL-2, 2680 nM (inactive). In addition, the GI50 in the experiment on SNB-75 is 6050 nM (inactive); in the experiment on U-251, 1970 nM (inactive).
As to `O=C1C=C(OCCCl)C(=O)c2c(O)ccc(O)c21`, the GI50 in the experiment with 786-0 is 1620 nM (inactive); in the experiment on A498, 1280 nM (inactive); with ACHN, 1540 nM (inactive); with BT-549, 226 nM (active); with CAKI-1 it was 2030 nM (inactive); in the experiment with CCRF-CEM, 469 nM (active). The GI50 was 1910 nM (inactive) in the experiment with EKVX; 209 nM with HCT-15; 1110 nM (active) in the experiment with HL-60; 589 nM (active) in the experiment with HOP-62; 216 nM (active) in the experiment on MCF7; 204 nM (active) in the experiment on MDA-MB-435. Further, the GI50 in the experiment with MOLT-4 is 1720 nM (inactive); in the experiment with OVCAR-5 it was 1590 nM (inactive); in the experiment on PC-3 it was 1820 nM (inactive); in the experiment with SF-268, 931 nM (active); with SF-539, 1360 nM (inactive); in the experiment on SK-MEL-2, 478 nM (active). Moreover, the results for the GI50 in the experiment with SNB-75 and with U-251 were 405 nM (active) and 1840 nM (inactive), respectively.
Regarding `Cc1ccc(-c2[nH]c(=O)n(C3OC(CO)C(O)C(O)C3O)c(=O)c2C#N)cc1` (stereo not given), the GI50 in the experiment with 786-0, in the experiment with A498, with ACHN, with BT-549, in the experiment with CAKI-1 and in the experiment with CCRF-CEM was > 100000 nM (inactive) in each case. Besides, the GI50 with EKVX is > 100000 nM (inactive); with HCT-15, greater than 100000 nM; with HL-60, > 100000 nM (inactive); in the experiment on HOP-62, > 100000 nM (inactive); with MCF7 it was > 100000 nM (inactive); with MDA-MB-435, > 100000 nM (inactive). Further, the GI50 in the experiment with MOLT-4, in the experiment on OVCAR-5, with PC-3, in the experiment on SF-268, with SF-539 and in the experiment on SK-MEL-2 was > 100000 nM (inactive) in each case. The GI50 with SNB-75 and in the experiment on U-251 was > 100000 nM (inactive) throughout.
Consider `O=C(c1ccsc1)c1cc2c(s1)C(=O)c1ccsc1C2=O`, for which the GI50 in the experiment on 786-0 was 189 nM (active); in the experiment with A498, 1580 nM (inactive); with ACHN, 95.9 nM (active); with BT-549 it was 80.7 nM (active); with CAKI-1 it was 499 nM (active); with CCRF-CEM, 155 nM (active). For the same compound, the GI50 in the experiment on EKVX was 200 nM (active); with HCT-15, 155 nM; in the experiment with HL-60, 1480 nM (inactive); in the experiment with HOP-62 it was 168 nM (active); in the experiment on MCF7, 182 nM (active); in the experiment with MDA-MB-435 it was 27.1 nM (active). Besides, the GI50 in the experiment on MOLT-4 is 435 nM (active); in the experiment on OVCAR-5 it was 552 nM (active); with PC-3, 290 nM (active); in the experiment with SF-268, 165 nM (active); in the experiment on SF-539, 67.1 nM (active); in the experiment with SK-MEL-2, 281 nM (active). Besides, the GI50 in the experiment on SNB-75 was 171 nM (active); in the experiment on U-251, 159 nM (active).
For `Oc1cc(Br)cc2cccnc12`, the GI50 with 786-0 is 9510 nM (inactive); with A498, 8360 nM (inactive); in the experiment on ACHN, 2630 nM (inactive); in the experiment with BT-549, 5150 nM (inactive); in the experiment on CAKI-1, 3150 nM (inactive); in the experiment on CCRF-CEM, 597 nM (active). Also, the GI50 with EKVX is 2090 nM (inactive); in the experiment on HCT-15, 697 nM; with HL-60, 237 nM (active); in the experiment with HOP-62 it was 5310 nM (inactive); in the experiment on MCF7, 964 nM (active); in the experiment with MDA-MB-435, 7290 nM (inactive). Besides, the GI50 in the experiment with MOLT-4 was 1350 nM (inactive); in the experiment with OVCAR-5, 5120 nM (inactive); in the experiment on PC-3 it was 3170 nM (inactive); in the experiment on SF-268, 698 nM (active); with SF-539 it was 2160 nM (inactive); in the experiment with SK-MEL-2, 15600 nM (inactive). For the same compound, the values for the GI50 in the experiment with SNB-75 and with U-251 were 15200 nM (inactive) and 1580 nM (inactive), respectively.
In the case of `CCOc1ccc(C2Oc3c(cccc3OC)C=C2[N+](=O)[O-])cc1OCC` (stereo not given), the GI50 in the experiment with 786-0 was 3040 nM (inactive); in the experiment with A498, 9570 nM (inactive); in the experiment on ACHN, 3710 nM (inactive); in the experiment with BT-549, 5960 nM (inactive); in the experiment on CAKI-1, 2940 nM (inactive); in the experiment on CCRF-CEM it was 1350 nM (inactive). Besides, the GI50 with EKVX is 16700 nM (inactive); with HCT-15, 4860 nM; with HL-60, 2140 nM (inactive); with HOP-62 it was 12600 nM (inactive); with MCF7, 3520 nM (inactive); in the experiment with MDA-MB-435, 2820 nM (inactive). Besides, the GI50 was 4220 nM (inactive) in the experiment with MOLT-4; 9590 nM (inactive) with OVCAR-5; 9330 nM (inactive) in the experiment with PC-3; 11600 nM (inactive) in the experiment with SF-268; 2390 nM (inactive) in the experiment on SF-539; 5640 nM (inactive) in the experiment on SK-MEL-2. Moreover, the figures for the GI50 with SNB-75 and with U-251 were 13800 nM (inactive) and 6490 nM (inactive), respectively.
With `COc1ccc(/C=N\N2CC(=O)N3C4C=CC(CC4)N3C2=O)cc1` (stereo not given), the GI50 in the experiment on 786-0, with A498, with ACHN, in the experiment on BT-549, in the experiment on CAKI-1 and with CCRF-CEM was > 100000 nM (inactive) in each case. Further, the GI50 was > 100000 nM (inactive) in the experiment on EKVX; greater than 100000 nM in the experiment with HCT-15; 53100 nM (inactive) in the experiment on HL-60; 46700 nM (inactive) with HOP-62; > 100000 nM (inactive) with MCF7; > 100000 nM (inactive) in the experiment on MDA-MB-435. The GI50 in the experiment on MOLT-4 is > 100000 nM (inactive); in the experiment with OVCAR-5 it was > 100000 nM (inactive); in the experiment on PC-3, > 100000 nM (inactive); in the experiment on SF-268, 88700 nM (inactive); in the experiment on SF-539, > 100000 nM (inactive); in the experiment with SK-MEL-2, > 100000 nM (inactive). For the same compound, the GI50 is 22200 nM (inactive) with SNB-75 and > 100000 nM (inactive) with U-251.
As for `C(=N\c1nc2cc3sc(/N=C/c4cccs4)nc3cc2s1)/c1cccs1`, the GI50 was > 100000 nM (inactive) in the experiment with 786-0; > 100000 nM (inactive) with A498; > 100000 nM (inactive) with ACHN; > 100000 nM (inactive) with BT-549; > 100000 nM (inactive) with CAKI-1; 11500 nM (inactive) in the experiment on CCRF-CEM. The GI50 in the experiment with EKVX is 34400 nM (inactive); with HCT-15 it was 73500 nM; in the experiment with HL-60, 79600 nM (inactive); in the experiment on HOP-62, > 100000 nM (inactive); in the experiment with MCF7, 33400 nM (inactive); with MDA-MB-435, > 100000 nM (inactive). The GI50 is 28300 nM (inactive) in the experiment with MOLT-4; > 100000 nM (inactive) in the experiment with OVCAR-5; > 100000 nM (inactive) with PC-3; > 100000 nM (inactive) in the experiment on SF-268; > 100000 nM (inactive) in the experiment on SF-539; > 100000 nM (inactive) in the experiment with SK-MEL-2. Moreover, the GI50 in the experiment with SNB-75 and in the experiment on U-251 was > 100000 nM (inactive) throughout.
In the case of `O=C(CBr)NCCc1c[nH]c2ccccc12`, the GI50 in the experiment on 786-0 was 1400 nM (inactive); in the experiment on A498 it was 19000 nM (inactive); with ACHN, 1730 nM (inactive); in the experiment on BT-549, 1770 nM (inactive); with CAKI-1 it was 776 nM (active); with CCRF-CEM, 174 nM (active). Besides, the GI50 in the experiment with EKVX is 1790 nM (inactive); in the experiment on HCT-15 it was 1760 nM; with HL-60, 1700 nM (inactive); in the experiment on HOP-62, 1940 nM (inactive); with MCF7, 2000 nM (inactive); in the experiment with MDA-MB-435, 1520 nM (inactive). Besides, the GI50 in the experiment with MOLT-4 is 406 nM (active); with OVCAR-5 it was 1870 nM (inactive); with PC-3 it was 1990 nM (inactive); in the experiment on SF-268, 2160 nM (inactive); with SF-539, 1810 nM (inactive); with SK-MEL-2, 1920 nM (inactive). Besides, the GI50 in the experiment on SNB-75 was 1650 nM (inactive); with U-251, 1870 nM (inactive).
